Data as given in publication PMC12102759 (Protein Science : A Publication of the Protein Society, 2025).

Assays:
[1] = test system: G3BP1 NFT2; type: binding, human; settings: library DMS-BM; bait G3BP1 NFT2; prey CAPRIN1; AQMQGPYNFIQDSM(averaged): mean of the two overlapping peptides over the shared positions
[2] = test system: G3BP1 NFT2; type: binding, human; settings: library DMS-CoV, bait G3BP1 NFT2, prey N, listed as aa = residue placed at this position, column sums to 1

AQMQGPYNFIQDSM(averaged) F9Q (AQMQGPYNQIQDSM)
DMS position-specific score (PSSM value) per amino-acid substitution, averaged [1]: 0.01043

AQMQGPYNFIQDSM(averaged) Y7L (AQMQGPLNFIQDSM)
DMS position-specific score (PSSM value) per amino-acid substitution, averaged [1]: 0.1143

AQMQGPYNFIQDSM(averaged) Q11K (AQMQGPYNFIKDSM)
DMS position-specific score (PSSM value) per amino-acid substitution, averaged [1]: 0.0002863

AQMQGPYNFIQDSM(averaged) F9M (AQMQGPYNMIQDSM)
DMS position-specific score (PSSM value) per amino-acid substitution, averaged [1]: 0

AQMQGPYNFIQDSM(averaged) M3Y (AQYQGPYNFIQDSM)
DMS position-specific score (PSSM value) per amino-acid substitution, averaged [1]: 0.01355

AQMQGPYNFIQDSM(averaged) M3A (AQAQGPYNFIQDSM)
DMS position-specific score (PSSM value) per amino-acid substitution, averaged [1]: 0.007318

AQMQGPYNFIQDSM(averaged) Q4K (AQMKGPYNFIQDSM)
DMS position-specific score (PSSM value) per amino-acid substitution, averaged [1]: 4.484e-5

AQMQGPYNFIQDSM(averaged) N8T (AQMQGPYTFIQDSM)
DMS position-specific score (PSSM value) per amino-acid substitution, averaged [1]: 0.1728

AQMQGPYNFIQDSM(averaged) P6M (AQMQGMYNFIQDSM)
DMS position-specific score (PSSM value) per amino-acid substitution, averaged [1]: 0.05352

AQMQGPYNFIQDSM(averaged) Q11L (AQMQGPYNFILDSM)
DMS position-specific score (PSSM value) per amino-acid substitution, averaged [1]: 0.00722

AQMQGPYNFIQDSM(averaged) M14S (AQMQGPYNFIQDSS)
DMS position-specific score (PSSM value) per amino-acid substitution, averaged [1]: 0.001956

AQMQGPYNFIQDSM(averaged) S13Q (AQMQGPYNFIQDQM)
DMS position-specific score (PSSM value) per amino-acid substitution, averaged [1]: 0

AQMQGPYNFIQDSM(averaged) G5K (AQMQKPYNFIQDSM)
DMS position-specific score (PSSM value) per amino-acid substitution, averaged [1]: 0.001793

AQMQGPYNFIQDSM(averaged) M14W (AQMQGPYNFIQDSW)
DMS position-specific score (PSSM value) per amino-acid substitution, averaged [1]: 0.06336

AQMQGPYNFIQDSM(averaged) P6N (AQMQGNYNFIQDSM)
DMS position-specific score (PSSM value) per amino-acid substitution, averaged [1]: 0.03046

AQMQGPYNFIQDSM(averaged) Q11E (AQMQGPYNFIEDSM)
DMS position-specific score (PSSM value) per amino-acid substitution, averaged [1]: 0

AQMQGPYNFIQDSM(averaged) P6Y (AQMQGYYNFIQDSM)
DMS position-specific score (PSSM value) per amino-acid substitution, averaged [1]: 0.1155

AQMQGPYNFIQDSM(averaged) Q4P (AQMPGPYNFIQDSM)
DMS position-specific score (PSSM value) per amino-acid substitution, averaged [1]: 0.003604

AQMQGPYNFIQDSM(averaged) N8D (AQMQGPYDFIQDSM)
DMS position-specific score (PSSM value) per amino-acid substitution, averaged [1]: 0.05276

AQMQGPYNFIQDSM(averaged) I10K (AQMQGPYNFKQDSM)
DMS position-specific score (PSSM value) per amino-acid substitution, averaged [1]: 0.0003536

AQMQGPYNFIQDSM(averaged) Q2D (ADMQGPYNFIQDSM)
DMS position-specific score (PSSM value) per amino-acid substitution, averaged [1]: 0.02749

AQMQGPYNFIQDSM(averaged) M14I (AQMQGPYNFIQDSI)
DMS position-specific score (PSSM value) per amino-acid substitution, averaged [1]: 0.02696

AQMQGPYNFIQDSM(averaged) Q2G (AGMQGPYNFIQDSM)
DMS position-specific score (PSSM value) per amino-acid substitution, averaged [1]: 0.001251

AQMQGPYNFIQDSM(averaged) A1Q (QQMQGPYNFIQDSM)
DMS position-specific score (PSSM value) per amino-acid substitution, averaged [1]: 0.1157

AQMQGPYNFIQDSM(averaged) M14E (AQMQGPYNFIQDSE)
DMS position-specific score (PSSM value) per amino-acid substitution, averaged [1]: 0.2115

AQMQGPYNFIQDSM(averaged) Y7A (AQMQGPANFIQDSM)
DMS position-specific score (PSSM value) per amino-acid substitution, averaged [1]: 0

AQMQGPYNFIQDSM(averaged) Q11D (AQMQGPYNFIDDSM)
DMS position-specific score (PSSM value) per amino-acid substitution, averaged [1]: 0

AQMQGPYNFIQDSM(averaged) N8G (AQMQGPYGFIQDSM)
DMS position-specific score (PSSM value) per amino-acid substitution, averaged [1]: 0.001288

AQMQGPYNFIQDSM(averaged) G5Y (AQMQYPYNFIQDSM)
DMS position-specific score (PSSM value) per amino-acid substitution, averaged [1]: 0.006993

AQMQGPYNFIQDSM(averaged) Q4L (AQMLGPYNFIQDSM)
DMS position-specific score (PSSM value) per amino-acid substitution, averaged [1]: 0.003961

AQMQGPYNFIQDSM(averaged) D12E (AQMQGPYNFIQESM)
DMS position-specific score (PSSM value) per amino-acid substitution, averaged [1]: 0.04092

RNAPRITFGGPSDSTG I6R (RNAPRRTFGGPSDSTG)
DMS PSSM value, I (position 6) ([2]; peptide RNAPRITFGGPSDSTG): 0

RNAPRITFGGPSDSTG P11F (RNAPRITFGGFSDSTG)
DMS PSSM value, P (position 11) ([2]; peptide RNAPRITFGGPSDSTG): 0

APRITFGGPSDSTGSN S15L (APRITFGGPSDSTGLN)
DMS PSSM value, S (position 15) ([2]; peptide APRITFGGPSDSTGSN): 0.01038

RNAPRITFGGPSDSTG G10S (RNAPRITFGSPSDSTG)
DMS PSSM value, G (position 10) ([2]; peptide RNAPRITFGGPSDSTG): 0

RNAPRITFGGPSDSTG G16R (RNAPRITFGGPSDSTR)
DMS PSSM value, G (position 16) ([2]; peptide RNAPRITFGGPSDSTG): 0

RNAPRITFGGPSDSTG N2W (RWAPRITFGGPSDSTG)
DMS PSSM value, N (position 2) ([2]; peptide RNAPRITFGGPSDSTG): 0

RNAPRITFGGPSDSTG S14W (RNAPRITFGGPSDWTG)
DMS PSSM value, S (position 14) ([2]; peptide RNAPRITFGGPSDSTG): 0

APRITFGGPSDSTGSN I4Y (APRYTFGGPSDSTGSN)
DMS PSSM value, I (position 4) ([2]; peptide APRITFGGPSDSTGSN): 0

RNAPRITFGGPSDSTG T15E (RNAPRITFGGPSDSEG)
DMS PSSM value, T (position 15) ([2]; peptide RNAPRITFGGPSDSTG): 0

RNAPRITFGGPSDSTG R5N (RNAPNITFGGPSDSTG)
DMS PSSM value, R (position 5) ([2]; peptide RNAPRITFGGPSDSTG): 0

RNAPRITFGGPSDSTG P4K (RNAKRITFGGPSDSTG)
DMS PSSM value, P (position 4) ([2]; peptide RNAPRITFGGPSDSTG): 0

RNAPRITFGGPSDSTG G9Y (RNAPRITFYGPSDSTG)
DMS PSSM value, G (position 9) ([2]; peptide RNAPRITFGGPSDSTG): 0

RNAPRITFGGPSDSTG S14Y (RNAPRITFGGPSDYTG)
DMS PSSM value, S (position 14) ([2]; peptide RNAPRITFGGPSDSTG): 0

RNAPRITFGGPSDSTG D13V (RNAPRITFGGPSVSTG)
DMS PSSM value, D (position 13) ([2]; peptide RNAPRITFGGPSDSTG): 0

APRITFGGPSDSTGSN G8I (APRITFGIPSDSTGSN)
DMS PSSM value, G (position 8) ([2]; peptide APRITFGGPSDSTGSN): 0

APRITFGGPSDSTGSN G7I (APRITFIGPSDSTGSN)
DMS PSSM value, G (position 7) ([2]; peptide APRITFGGPSDSTGSN): 0

APRITFGGPSDSTGSN G14H (APRITFGGPSDSTHSN)
DMS PSSM value, G (position 14) ([2]; peptide APRITFGGPSDSTGSN): 0.009284

RNAPRITFGGPSDSTG P4V (RNAVRITFGGPSDSTG)
DMS PSSM value, P (position 4) ([2]; peptide RNAPRITFGGPSDSTG): 0

APRITFGGPSDSTGSN G14T (APRITFGGPSDSTTSN)
DMS PSSM value, G (position 14) ([2]; peptide APRITFGGPSDSTGSN): 0.007708

APRITFGGPSDSTGSN G14A (APRITFGGPSDSTASN)
DMS PSSM value, G (position 14) ([2]; peptide APRITFGGPSDSTGSN): 0.007074

APRITFGGPSDSTGSN R3V (APVITFGGPSDSTGSN)
DMS PSSM value, R (position 3) ([2]; peptide APRITFGGPSDSTGSN): 0.00164

RNAPRITFGGPSDSTG G9V (RNAPRITFVGPSDSTG)
DMS PSSM value, G (position 9) ([2]; peptide RNAPRITFGGPSDSTG): 0

APRITFGGPSDSTGSN P2I (AIRITFGGPSDSTGSN)
DMS PSSM value, P (position 2) ([2]; peptide APRITFGGPSDSTGSN): 0

APRITFGGPSDSTGSN G8F (APRITFGFPSDSTGSN)
DMS PSSM value, G (position 8) ([2]; peptide APRITFGGPSDSTGSN): 0

RNAPRITFGGPSDSTG A3G (RNGPRITFGGPSDSTG)
DMS PSSM value, A (position 3) ([2]; peptide RNAPRITFGGPSDSTG): 0.6104

APRITFGGPSDSTGSN T13W (APRITFGGPSDSWGSN)
DMS PSSM value, T (position 13) ([2]; peptide APRITFGGPSDSTGSN): 0

APRITFGGPSDSTGSN T13I (APRITFGGPSDSIGSN)
DMS PSSM value, T (position 13) ([2]; peptide APRITFGGPSDSTGSN): 0.0005621

APRITFGGPSDSTGSN G7F (APRITFFGPSDSTGSN)
DMS PSSM value, G (position 7) ([2]; peptide APRITFGGPSDSTGSN): 0

APRITFGGPSDSTGSN S15H (APRITFGGPSDSTGHN)
DMS PSSM value, S (position 15) ([2]; peptide APRITFGGPSDSTGSN): 0.01115

RNAPRITFGGPSDSTG G16Y (RNAPRITFGGPSDSTY)
DMS PSSM value, G (position 16) ([2]; peptide RNAPRITFGGPSDSTG): 0

APRITFGGPSDSTGSN G8D (APRITFGDPSDSTGSN)
DMS PSSM value, G (position 8) ([2]; peptide APRITFGGPSDSTGSN): 0

APRITFGGPSDSTGSN I4L (APRLTFGGPSDSTGSN)
DMS PSSM value, I (position 4) ([2]; peptide APRITFGGPSDSTGSN): 0

RNAPRITFGGPSDSTG F8I (RNAPRITIGGPSDSTG)
DMS PSSM value, F (position 8) ([2]; peptide RNAPRITFGGPSDSTG): 0

RNAPRITFGGPSDSTG T15K (RNAPRITFGGPSDSKG)
DMS PSSM value, T (position 15) ([2]; peptide RNAPRITFGGPSDSTG): 0

RNAPRITFGGPSDSTG F8Y (RNAPRITYGGPSDSTG)
DMS PSSM value, F (position 8) ([2]; peptide RNAPRITFGGPSDSTG): 0

RNAPRITFGGPSDSTG T7Y (RNAPRIYFGGPSDSTG)
DMS PSSM value, T (position 7) ([2]; peptide RNAPRITFGGPSDSTG): 0

APRITFGGPSDSTGSN T13D (APRITFGGPSDSDGSN)
DMS PSSM value, T (position 13) ([2]; peptide APRITFGGPSDSTGSN): 9.878e-5

APRITFGGPSDSTGSN S15Q (APRITFGGPSDSTGQN)
DMS PSSM value, S (position 15) ([2]; peptide APRITFGGPSDSTGSN): 0.01454

APRITFGGPSDSTGSN T13K (APRITFGGPSDSKGSN)
DMS PSSM value, T (position 13) ([2]; peptide APRITFGGPSDSTGSN): 0

APRITFGGPSDSTGSN G7N (APRITFNGPSDSTGSN)
DMS PSSM value, G (position 7) ([2]; peptide APRITFGGPSDSTGSN): 0

APRITFGGPSDSTGSN S10V (APRITFGGPVDSTGSN)
DMS PSSM value, S (position 10) ([2]; peptide APRITFGGPSDSTGSN): 0.01109

APRITFGGPSDSTGSN T13P (APRITFGGPSDSPGSN)
DMS PSSM value, T (position 13) ([2]; peptide APRITFGGPSDSTGSN): 0.005019

RNAPRITFGGPSDSTG G16S (RNAPRITFGGPSDSTS)
DMS PSSM value, G (position 16) ([2]; peptide RNAPRITFGGPSDSTG): 0

RNAPRITFGGPSDSTG P11R (RNAPRITFGGRSDSTG)
DMS PSSM value, P (position 11) ([2]; peptide RNAPRITFGGPSDSTG): 0

APRITFGGPSDSTGSN P9M (APRITFGGMSDSTGSN)
DMS PSSM value, P (position 9) ([2]; peptide APRITFGGPSDSTGSN): 0

APRITFGGPSDSTGSN G7Y (APRITFYGPSDSTGSN)
DMS PSSM value, G (position 7) ([2]; peptide APRITFGGPSDSTGSN): 0

APRITFGGPSDSTGSN D11V (APRITFGGPSVSTGSN)
DMS PSSM value, D (position 11) ([2]; peptide APRITFGGPSDSTGSN): 0.02861

RNAPRITFGGPSDSTG G10R (RNAPRITFGRPSDSTG)
DMS PSSM value, G (position 10) ([2]; peptide RNAPRITFGGPSDSTG): 0

RNAPRITFGGPSDSTG G9K (RNAPRITFKGPSDSTG)
DMS PSSM value, G (position 9) ([2]; peptide RNAPRITFGGPSDSTG): 0
